“And” between values parts separate entries of the source, which are not always exact repeats. Equal entries are not always repeated.
Experiments:
NIH3T3 cells [1] = assay: 5-FU-induced apoptosis (Annexin V, flow cytometry) in NIH3T3 cells; type: cell-based; details: for 5-FU apoptotic rate after transfection: NIH3T3, transfected 24 hours then 5-FU 48 hours (FIG. 10A), control 28-30%; for percent of apoptosis induced by 5-FU after transfection: parental NIH3T3, transfected 24 hrs then 5-FU 48 hrs, control 28%
Protocol: (§1) Apoptosis Assay. Cells were collected by trypsinization, washed in wash buffer and stained with Annexin V and 7-AAD according to manufacturer's recommendation (PharMingen, San Diego, Calif.). Data acquisition and analysis was performed by the Flow Cytometry Core Facility at the H. Lee Moffitt Cancer Center (Tampa, Fla.). All the samples were performed in duplicate and a representative of 3 independent experiments were reported here.

H-Ras/NIH3T3 cells = assay: 5-FU-induced apoptosis (Annexin V, flow cytometry) in H-Ras-transformed NIH3T3 cells; type: cell-based
Protocol: as §1

NIH3T3 cells [2] = assay: Focus formation assay in oncogene-transfected NIH3T3 cells; type: cell-based; set-up: inhibition of focus formation: concentration or dose not given beside the values; details: for # of foci formed: 4 weeks
Protocol: Focus Formation Assay. NIH3T3 cells were seeded into 60-mm plates (1×10^6 cell/per plate) one day prior to gene transfection. […] Two days after transfection, the cells were seeded into 60-mm plates at a density of 2.5×10^3/per plate, and maintained in DMEM medium containing 1.5% CBS. The medium was changed every 3 days. 3-4 weeks later the cells were washed once with PBS and once with PBS/methanol (1:1), then washed with fresh anhydrous methanol and covered with crystal violet stain for 1 min at room temperature. Finally, the stain was displaced with water. The focus formation assay for A-549 cells was similarly performed as above except that following the transfection the cells were cultured in DMEM complete medium containing 400 μg/ml of geneticin (G418, […], Inc.). 3 weeks later, the cells were fixed with anhydrous methanol and stained with crystal violet; the plates were photographed. All the samples were performed in triplicate and a representative of 3 independent experiments was reported in the figure(s) and averages±standard deviation reported in the table.

NIH3T3 cells [3] = assay: Anchorage-independent growth (soft agar) assay in NIH3T3 cells; type: cell-based; details: 5 weeks
Protocol: Anchorage-independent Growth Assay. NIH3T3 cells were similarly transfected as above. The cells were trypsinized, and 2.5×10^3 cells were suspended in triplicate in top soft agar layer (DMEM complete medium containing 0.35% agar) and seeded into 60-mm plates pre-coated by a 3-mm layer of lower agar (DMEM complete medium containing 0.7% agar). The cells were fed every 5 days for 5-6 weeks and finally stained with MTT (SIGMA). All the experiments were performed in triplicate and a representative of 3 independent experiments was reported in the figure(s) and averages±standard deviation in the table.

NIH3T3 cells [4] = assay: Cell proliferation, parental NIH3T3; type: cell-based; details: non-transformed NIH3T3, 0-96 hours
Protocol: Cell Proliferation. Cells were collected and examined for cell number by trypan blue exclusion and hemocytometer counting under microscope at 0 h, 24 h, 48 h, 72 h and 96 h. All the samples were performed in triplicate and the averages of 3 independent experiments were reported.

H-Ras/3T3 cells = assay: Migration through collagen type I coated transfilters, H-Ras/3T3 cells; type: cell-based; details: H-Ras/3T3 cells (FIG. 8B)
Protocol: (§2) Parental NIH3T3 (FIG. 8A) were transiently transfected with pcDNA3 vector control, H-Ras61L, CA-PI3K, or CA-Akt in the presence or absence of RhoA or RhoB or pcDNA3 for 36 hours. The cells were then split and cultured for another 4 weeks. The plates were examined for focus formation by staining. H-Ras/3T3 cells (FIG. 8B) and PANC-1 cells (FIG. 8C) were transiently transfected with pcDNA3 vector control, CA-Akt, or WT-Akt in the presence or absence of RhoA, RhoB, or pcDNA3 for 36 hours. The cells were then split and analyzed for their migration capabilities through collagen type I coated transfilters as described in the Materials and Methods section. NIH3T3 cells (FIGS. 8D and 8E) were transiently transfected with pcDNA3 vector control, H-Ras61L, CA-Akt, or WT-Akt in the presence or absence of RhoA, RhoB, or pcDNA3 for 36 hours. The monolayers were then scratched with a 20 μl pipette tip and micro-photographed at the time points indicated for analyzing their capability to migrate into and fill the wounded area.

PANC-1 cells = assay: Migration through collagen type I coated transfilters, PANC-1 cells; type: cell-based, human; details: PANC-1 cells (FIG. 8C)
Protocol: as §2

MMP-2 = MMP-2 expression in conditioned medium of PANC-1 and PC3 cells (Western blotting); type: cell-based, human; details: conditioned medium (FIG. 9C)
Protocol: HRas/3T3 cells (FIG. 9A) and PANC-1 cells (FIG. 9B) were transiently transfected with pcDNA3 vector control, H-Ras61L, CA-Akt, or WT-Akt in the presence or absence of RhoA, RhoB, or pcDNA3 for 36 hours. The cells were then split and analyzed for their invading capabilities through […]-coated transfilters as described in the Materials and Methods section. PANC-1 and PC3 cells (FIG. 9C) were transiently transfected with pcDNA3, with H-Ras61L in the presence or absence of RhoA, or RhoB for 36 hours. The cells were then serum-starved for another 36 hours; the conditioned medium was collected and 20 μg protein were analyzed for MMP-2 expression by Western Blotting.
One pivotal step in these processes is the ability of cancer cells to cut through the extracellular matrix. This is accomplished by a cascade of proteinases, among which matrix metalloproteinases (MMPs) play a pivotal role (Yoon, S. O. et al., J Biochem Mol Biol, 2003, 36:128-37; Stamenkovic, I. Semin Cancer Biol, 2000, 10:415-33). […] To this end, PANC-1 and PC3 cells were treated with LY294002, or transfected with pcDNA3-RhoA or RhoB, and the conditioned culture medium was collected and analyzed for MMP-2 expression by anti-MMP-2 Western blotting as described in the Materials and Methods section.

Compound	# of foci formed (NIH3T3 cells [2]; oncogene transfected: EGFR)	# of foci formed (NIH3T3 cells [2]; oncogene transfected: ErbB2)	# of foci formed (NIH3T3 cells [2]; oncogene transfected: H-Ras)	# of foci formed (NIH3T3 cells [2]; oncogene transfected: K-Ras)	# of foci formed (NIH3T3 cells [2]; oncogene transfected: N-Ras)	# of foci formed (NIH3T3 cells [2]; oncogene transfected: v-Src)	# of soft agar colonies (NIH3T3 cells [3]; oncogene: H-Ras)	# of soft agar colonies (NIH3T3 cells [3]; oncogene: K-Ras)	# of soft agar colonies (NIH3T3 cells [3]; oncogene: N-Ras)	growth rate (NIH3T3 cells [4])	5-FU apoptotic rate after transfection (NIH3T3 cells [1])	percent of apoptosis induced by 5-FU after transfection (NIH3T3 cells [1])	ability to migrate through collagen type I (H-Ras/3T3 cells)	ability to migrate through collagen type I (PANC-1 cells)	MMP-2 protein secreted (MMP-2)	also measured
O=c1[nH]cc(F)c(=O)[nH]1 [5-FU, 5-fluorouracil]	–	–	–	–	–	–	–	–	–	–	–	–	–	–	–	apoptosis (NIH3T3 cells [1]; NIH3T3, 5-FU 48 hours (FIG. 10A)): 28-30%; apoptosis (NIH3T3 cells [1]; parental NIH3T3, 5-FU 2.0 μM 48 hrs (FIG. 4B)): 27-32%; apoptosis (H-Ras/NIH3T3 cells; H-Ras-transformed NIH3T3, 5-FU 2.0 μM 48 hrs (FIG. 4B)): 16-18%
RhoA: closely related family member sharing 86% sequence identity with RhoB; wild-type, in HA-tagged pcDNA3, transfected as control	47 ± 7	61 ± 11	63 ± 11	71 ± 13	46 ± 8	35 ± 7	77 and 77 ± 12	65 and 65 ± 7	89 and 89 ± 14	enhanced the rate of growth	slightly protected	no significant effect	migrated	migrated	increased MMP-2 levels, but to a lesser extent	–
RhoB: low molecular weight GTPase; wild-type RhoB subcloned into HA-tagged pcDNA3 and ectopically expressed by transfection	17 ± 3	19 ± 4	18 ± 3	16 ± 4	22 ± 3	26 ± 6	21 and 21 ± 3	18 and 18 ± 5	26 and 26 ± 7	not affected	enhanced	39%	dramatically hindered	dramatically hindered	remarkably reduced	colony (focus) formation (NIH3T3 cells [2]; co-transfection with H-Ras61L, CA-PI3K or CA-Akt, 4 weeks (FIG. 8A)): significant inhibition of colony formation; inhibition of focus formation (NIH3T3 cells [2]; focus formation by EGFR): 56%; inhibition of focus formation (NIH3T3 cells [2]; focus formation by ErbB2): 59%; inhibition of focus formation (NIH3T3 cells [2]; focus formation by H-Ras): 62%; inhibition of focus formation (NIH3T3 cells [2]; focus formation by K-Ras): 61%; inhibition of focus formation (NIH3T3 cells [2]; focus formation by N-Ras): 39%; inhibition of focus formation (NIH3T3 cells [2]; v-Src transformation): 15%; percent of apoptosis induced by 5-FU after transfection (H-Ras/NIH3T3 cells; H-Ras-transformed NIH3T3, transfected 24 hrs then 5-FU 48 hrs, control 16%): 37%

Reference: patent US7629310B2, “RhoB as a suppressor of cancer cell growth, cell transformation, and metastasis” (University of South Florida, priority 2000, dated 2009)
